Measured values as given in PMC12754617, “Ruthenium-enhanced curcumin derivatives target tumor growth and cancer-related inflammation in head and neck cancer models” (Frontiers in Oncology, 2025).
Where two headings read alike, the source gives them in different places.

Assays:
[1] = test system: FaDu; assay: Wound healing assay; assay type: cell-based, human; conditions: IC25 concentration, area closed
Experimental: (§1) The wound healing activity of complexes 3 and 4 was evaluated using the ibidi Culture-Insert 2 Well in a μ-dish. Cells were plated by applying 70 μL of cell suspension at a density of 50,000 cells into both wells of the Culture-Insert 2 Well and grown over the weekend. Once confluency was achieved, sterile tweezers were used to detach the Culture-Insert 2 Well from the μ-dish. The cell layer was then gently washed with PBS. Subsequently, the cell layer was treated with medium containing complex 3 or 4 at the IC25 concentration, and wound closure was observed and photographed using an inverted light microscope (0–55 h of incubation). Experiments were performed in four independent replicates.
(§2) An in vitro wound healing assay was performed to determine the effect of complex 3 or 4 on cell migration. The area of the wound bordered by a monolayer of cells was measured using ImageJ software. Wound closure was monitored from 0 to 55 h. […] Microscope images after 24 h for all cell lines, as well as 55 h, can be seen in Supplementary Figure S7. […] The stained wound healing area after 55 h is shown in Supplementary Figure S10.

[2] = test system: CAL 27; assay: Wound healing assay; assay type: cell-based, human; conditions: IC25 concentration, area closed
Experimental: as §1, §2

[3] = test system: KB; assay: Wound healing assay; assay type: cell-based, human; conditions: IC25 concentration, area closed
Experimental: as §1, §2

[4] = test system: Detroit 562; assay: Wound healing assay; assay type: cell-based, human; conditions: IC25 concentration, area closed
Experimental: as §1, §2

[5] = test system: HGF; assay: Wound healing assay; assay type: cell-based, human; conditions: IC25 concentration, area closed
Experimental: as §1, §2

[6] = UV–Vis spectroscopy in PBS (solubility); assay type: physicochemical; conditions: PBS (PBS:DMSO 99:1), UV–Vis linearity of absorbance
Experimental: All chemicals were sourced from commercial suppliers and utilized directly without any additional purification steps. Nuclear Magnetic Resonance (NMR) spectra were acquired on a 400-MHz spectrometer (JEOL, Tokyo, Japan) at 25°C. The chemical shifts (δ) are given in parts per million (ppm), with coupling constants (J) measured in hertz (Hz). The ^1H and ^13C NMR shifts are referenced to TMS, and solvent signals from Dimethyl Sulfoxide (DMSO)-d6 (2.50 ppm for ^1H and 39.52 ppm for ^13C) were used as references. Data analysis was performed using MestReNova software (version 14.2.1, Mestrelab Research S.L., Santiago de Compostela, SPAIN). Full assignment was performed using a combination of ^1H, ^13C, correlation spectroscopy (COSY), heteronuclear single quantum coherence (HSQC), and heteronuclear multiple bond correlation (HMBC) experiments. Mass spectrometry was conducted in positive ion mode using electrospray ionization (ESI^+) with a high-resolution hybrid Ion Trap-Orbitrap mass spectrometer (LTQ Orbitrap Velos, Thermo Scientific, Waltham, Massachusetts, USA), Supplementary Figures S21, S22. Detailed NMR spectra for all synthesized products are available in Supplementary Figures S12-S20. […] Characteristic absorption maxima were identified, and their dependence on concentration was evaluated.

[7] = test system: FaDu; assay: MTT viability assay; assay type: cell-based, human
Experimental: (§3) A colorimetric 3-(4,5-dimethylthiazolyl)-2,5-diphenyltetrazolium bromide (MTT) cell metabolic activity assay was used to assess the cytotoxicity of complexes 3 and 4. The cells (described above) were cultured under standard conditions. Cells were seeded in 96-well plates at a density of 10,000 cells per well (200 μL) and allowed to grow for 24 h. The medium was then replaced with medium containing complex 3 or 4 at a concentration ranging from 0 to 200 μM, and the cells were incubated for an additional 24, 48, and 72 h. Subsequently, the medium was replaced with MTT solution, consisting of yellow tetrazolium dye 3-(4,5-dimethylthiazol-2-yl)-2,5-diphenyltetrazolium bromide (Sigma-Aldrich, Merck, Germany), and incubated for 2 h at 37°C. The dye was then removed, and the resulting purple formazan formed in viable cells was dissolved in DMSO, followed by shaking for 30 s. Absorbance was measured at 570 nm using an […] 200 PRO microplate reader (TECAN, Männedorf, Switzerland). All experiments were performed in quadruplicate and repeated three times.
(§4) The cell inhibitory concentration (IC) was calculated using the equation IC = (Acomplex3/complex4 well/mean Acontrol wells) × 100%. The half-maximal inhibitory concentration (IC50) was determined from dose–response curves using GraphPad Prism 10 (GraphPad Software Inc., La Jolla, CA, USA). The selectivity index toward cancer cells was calculated as a ratio of the average IC50 value for HGF to the IC50 value for the corresponding cancer cell line.

[8] = test system: CAL 27; assay: MTT viability assay; assay type: cell-based, human
Experimental: as §3, §4

[9] = test system: KB; assay: MTT viability assay; assay type: cell-based, human
Experimental: as §3, §4

[10] = test system: TR146; assay: MTT viability assay; assay type: cell-based, human
Experimental: as §3, §4

[11] = test system: Detroit 562; assay: MTT viability assay; assay type: cell-based, human
Experimental: as §3, §4

[12] = test system: SCC-9; assay: MTT viability assay; assay type: cell-based, human
Experimental: as §3, §4

[13] = test system: Hep-2; assay: MTT viability assay; assay type: cell-based, human
Experimental: as §3, §4

[14] = test system: HGF; assay: MTT viability assay; assay type: cell-based, human
Experimental: as §3, §4

What does the source list for `Cc1ccc(C(C)C)cc1.Cc1ccc(C(C)C)cc1.O=C1C(=Cc2cccnc2)CCC1=Cc1cccnc1.[Cl][Ru][Cl].[Cl][Ru][Cl]` [Complex 4]?
Wound area (%) ([1]; 24 h): 24 ± 6%; Wound area (%) ([1]; 48 h): 43 ± 10%; Wound area (%) ([1]; 55 h): 61 ± 6%; Wound area (%) ([2]; CAL 27, 24 h): 7 ± 4%; Wound area (%) ([2]; CAL 27, 48 h): 11 ± 3%; Wound area (%) ([2]; CAL 27, 55 h): less than 15%; Wound area (%) ([2]; CAL 27, 55 h, listed as C4): 12 ± 3%; Wound area (%) ([3]; 24 h): 16 ± 4%; Wound area (%) ([3]; 48 h): 33 ± 4%; Wound area (%) ([3]; 55 h): less than 50%; Wound area (%) ([3]; 55 h, listed as C4): 44 ± 2%; Wound area (%) ([4]; Detroit 562, 24 h): 13 ± 7%; Wound area (%) ([4]; Detroit 562, 48 h): 38 ± 11%; Wound area (%) ([4]; Detroit 562, 55 h): 76 ± 2%; Wound area (%) ([5]; 24 h): 13 ± 3%; Wound area (%) ([5]; 48 h): 47 ± 11%; Wound area (%) ([5]; 55 h): 91 ± 1%; Solubility in the buffered environment [6]: sufficient solubility; IC50 ([7]; 24 h, read-out: IC50 24h): 25.9 ± 0.25 µM; IC50 ([7]; 48 h, read-out: IC50 48h): 17.1 ± 2.24 µM; IC50 ([7]; 72 h, read-out: IC50 72h): 21.6 ± 0.73 µM; IC50 ([8]; CAL 27, 24 h, read-out: IC50 24h): 27.1 ± 0.79 µM; IC50 ([8]; CAL 27, 48 h, read-out: IC50 48h): 16.1 ± 0.57 µM; IC50 ([8]; CAL 27, 72 h, read-out: IC50 72h): 33.3 ± 0.65 µM; IC50 ([9]; 24 h, read-out: IC50 24h): 20.8 ± 0.77 µM; IC50 ([9]; 48 h, read-out: IC50 48h): 25.2 ± 0.33 µM; IC50 ([9]; 72 h, read-out: IC50 72h): 30.3 ± 0.65 µM; IC50 ([10]; TR146, 24 h, read-out: IC50 24h): 59.3 ± 3.24 µM; IC50 ([10]; TR146, 48 h, read-out: IC50 48h): 16.8 ± 0.81 µM; IC50 ([10]; TR146, 72 h, read-out: IC50 72h): 18.2 ± 1.07 µM; IC50 ([11]; Detroit 562, 24 h, read-out: IC50 24h): 21.7 ± 2.45 µM; IC50 ([11]; Detroit 562, 48 h, read-out: IC50 48h): 42.2 ± 0.62 µM; IC50 ([11]; Detroit 562, 72 h, read-out: IC50 72h): 18.1 ± 2.63 µM; IC50 ([12]; SCC-9, 24 h, read-out: IC50 24h): 14.3 µM; IC50 ([12]; SCC-9, 48 h, read-out: IC50 48h): 16.6 ± 0.71 µM; IC50 ([12]; SCC-9, 72 h, read-out: IC50 72h): 3.65 ± 0.4 µM; IC50 ([13]; Hep-2, 24 h, read-out: IC50 24h): 88 ± 4.03 µM; IC50 ([13]; Hep-2, 48 h, read-out: IC50 48h): 21.2 ± 0.02 µM; IC50 ([13]; Hep-2, 72 h, read-out: IC50 72h): 37.65 ± 0.36 µM; IC50 ([14]; 24 h, read-out: IC50 24h): 28.2 ± 2.78 µM; IC50 ([14]; 48 h, read-out: IC50 48h): 9 ± 1.68 µM; IC50 ([14]; 72 h, read-out: IC50 72h): 13.9 ± 0.59 µM
